Experimental data published in article PMC9537572, “Elucidation of the binding mechanism of astragaloside IV derivative with human serum albumin and its cardiotoxicity in zebrafish embryos” (Frontiers in Pharmacology, 2022).
Marks after values point to notes of the source that are not given here.

How the values were obtained:
HSA [1] = target: T1, HSA (Homo sapiens, UniProt P02768); assay: Plasma protein binding rate by equilibrium dialysis and UHPLC-MS/MS; format: in vitro ADME; conditions: human, plasma, equilibrium dialysis 72 h at 4 °C, n = 3, read-out: Protein binding rate (%, Mean±SD) (converted)
Description: The binding rate of AGS IV/LS-102 and HSA was determined using a slightly modified equilibrium dialysis method ([Metsu et al., 2020]). […] The stock solutions of HSA (0.5 ml) and drug group (0.5 ml) were placed in a dialysis membrane bag that was ligated at both ends and then immersed in a test tube filled with 50 ml of PBS solution for 72 h at 4 °C. After equilibrium, a 0.5-ml solution of outer dialysate and internal dialysate was collected into a 2-ml EP tube, and 10 µL IS (digoxin, 0.1 mg/ml) solution was added to each tube. Both samples were added to 1.5 ml of acetonitrile and vortexed for 3 min, and then the samples were separated via centrifugation at 18,000 × g for 20 min. The supernatants were transferred to another EP tube and dried under a nitrogen stream. The residue was redissolved in 1 ml methanol, sonicated for 2 min, vortexed for 3 min, and centrifuged at 18,000 × g for 10 min. The supernatant was filtered with a 0.22 µm microporous syringe filter in a 2 ml sample vial, and 1 µL was injected into the UHPLC-MS/MS system for analysis. The plasma protein binding rate was calculated according to the following formula ([Talbert et al., 2002]): Plasma binding rate=Internal drug concentration−External drug concentration/Initial drug concentration ×100%

HSA [2] = target: T1, HSA; assay: Site marker competitive experiments (warfarin, ibuprofen) by equilibrium dialysis; format: in vitro ADME; conditions: drug 0.476 mg/ml, n = 3, read-out: Plasma protein binding (converted)
Description: The site marker competitive experiments were performed using two classical site probes, warfarin and ibuprofen, which were selected as the markers of subdomain IIA (site I) and subdomain IIIA (site II) separately of HAS ([Ghuman et al., 2005]). The procedure was consistent with the method described in section 2.5, except that the concentrations of AGS IV and LS-102 were both fixed at 0.476 mg/ml, while the external dialysis solution was changed to contain the probe with a final concentration of 0, 0.06, 0.3, 1.2 mg/ml PBS solution. Briefly, the AGS IV/LS-102 HSA mixture (0.5 ml drug and 0.5 ml HSA) was separately incubated with three different concentrations of probe to evaluate the effects of warfarin or ibuprofen on drug-protein binding influence. Three replicates of each concentration were prepared. After equilibrium dialysis, the internal and external dialysates were analyzed by UHPLC-MS/MS.

zebrafish embryos [3] = assay: Astemizole-induced cardiotoxicity in zebrafish embryos: heart rate and SV-BA spacing; format: in vivo; conditions: 4 µM astemizole; for Heart rate (beats/min) (Mean±SE) / SV-BA spacing (µm) (Mean±SE): 250 µg/ml, n = 10
Description: A total of 270 wild-type AB zebrafish at 3 dpf were randomly selected, and 30 zebrafish were plated in each well of a six-well plates. The concentrations of LS-102 were 27.8, 83.3 and 250 µg/ml, AGS IV was 250 µg/mL. A normal control group (fish culture water) and a 4 µM astemizole model control group were also established. Ten zebrafish were randomly selected from each group, and the heart rate and venous sinus-to-arterial bulb distance (SV-BA) of zebrafish were observed under a dissecting microscope after 2 h, 6 h and 24 h of LS-102 and AGS IV treatment. Images were collected by photographing, and the ameliorative effect of LS-102 and AGS IV on astemizole-induced cardiotoxicity in zebrafish was evaluated by the statistical significance of the heart rate and the SV-BA interval index.

zebrafish embryos [4] = assay: Astemizole-induced toxicity in zebrafish heart development; format: in vivo; conditions: 250 µg/mL, n=30
Description: A total of 270 wild-type AB zebrafish at 2 h post-fertilization (2 hpf) were randomly selected, and 30 zebrafish were plated in each well of a six-well plates. The concentrations of LS-102 were 27.8, 83.3 and 250 µg/ml, while that of AGS IV was 250 µg/mL. A normal control group (fish culture water) and a 4 µM astemizole model control group were also established. After LS-102 and AGS IV were cotreated with astemizole for 48 h, zebrafish heart development was observed and photographed under a microscope to evaluate the ameliorative effect of LS-102 and AGS IV on astemizole-induced toxicity in zebrafish heart development.

zebrafish = assay: Arachidonic acid-induced thrombosis in zebrafish; format: in vivo; conditions: for Staining intensity of cardiac red blood cells (pixels) (mean ± se): 3 h pretreatment, arachidonic acid 1.5 h, n = 10; for Antithrombotic effect (%): vs. model group, arachidonic acid-induced thrombosis
Description: A total of 270 melanin allele mutant translucent albino strain zebrafish at 3 dpf were randomly selected, with 30 zebrafish per well in six-well plates. The concentrations of LS-102 were 6.25, 12.5, 25, 50, and 100 µg/ml, while that of AGS IV was 100 µg/ml, and the positive control drug aspirin was 25 µg/ml. After treatment with LS-102 and AGS IV for 3 h, arachidonic acid aqueous solution was administered for 1.5 h to induce a thrombosis model in zebrafish in all experimental groups except the normal group. After staining with o-anisidine, zebrafish were randomly selected from each experimental group and observed under a dissecting microscope and photographed. Data were collected to qualitatively evaluate thrombosis in zebrafish, and the intensity of cardiac erythrocyte staining (length of venous thrombus vs. number of cardiac erythrocytes) in zebrafish was analyzed and counted to establish, the preventive effect of LS-102 and AGS IV with aspirin on thrombosis in zebrafish. The formula was calculated as follows:
Thromboprophylactic effect (%) = S (drug administration group)−S (model group)/S (nomal control group)−S (model group)×100%

[5] = ref Xu et al., 2016; cited from earlier work

T1 sequence (P02768 25-609): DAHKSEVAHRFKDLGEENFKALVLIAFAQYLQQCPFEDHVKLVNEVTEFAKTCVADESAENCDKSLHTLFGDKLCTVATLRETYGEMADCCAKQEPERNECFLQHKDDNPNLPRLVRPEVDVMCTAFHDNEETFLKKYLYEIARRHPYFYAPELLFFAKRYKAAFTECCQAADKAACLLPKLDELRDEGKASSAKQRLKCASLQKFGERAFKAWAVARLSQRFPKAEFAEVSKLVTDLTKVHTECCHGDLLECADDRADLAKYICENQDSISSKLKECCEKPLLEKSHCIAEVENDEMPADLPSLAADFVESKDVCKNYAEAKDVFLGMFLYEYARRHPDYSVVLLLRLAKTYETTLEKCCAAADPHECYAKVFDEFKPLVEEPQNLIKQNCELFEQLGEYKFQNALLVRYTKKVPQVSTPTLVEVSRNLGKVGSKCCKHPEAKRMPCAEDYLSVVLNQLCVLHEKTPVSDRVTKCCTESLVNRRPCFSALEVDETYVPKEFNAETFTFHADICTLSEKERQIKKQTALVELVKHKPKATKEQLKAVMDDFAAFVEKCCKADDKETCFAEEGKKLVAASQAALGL

## CC(C)(O)C1CCC(C)(C2C(O)CC3(C)C4CC(OC5OC(CO)C(O)C(O)C5O)C5C(C)(C)C(OC6OCC(O)C(O)C6O)CCC56CC46CCC23C)O1 [AGS IV, 3-O-β-D-xylopyranosyl-6-O-β-D-glucopyranosyl-cycloastragenol, reference compound]
HSA [1]; drug 0.238 mg/ml
  fraction unbound at 72 h, 0.238 mg/ml: 0.0538
HSA [1]; drug 0.476 mg/ml
  fraction unbound at 72 h, 0.476 mg/ml: 0.0258
HSA [1]; drug 0.714 mg/ml
  fraction unbound at 72 h, 0.714 mg/ml: 0.0594
HSA [2]; with ibuprofen 0.06 mg/ml
  fraction unbound at 72 h, 0.476 mg/ml: 0.0718
HSA [2]; with ibuprofen 0.3 mg/ml
  fraction unbound at 72 h, 0.476 mg/ml: 0.0613
HSA [2]; with ibuprofen 1.2 mg/ml
  fraction unbound at 72 h, 0.476 mg/ml: 0.0281
HSA [2]; with warfarin 0.06 mg/ml
  fraction unbound at 72 h, 0.476 mg/ml: 0.051
HSA [2]; with warfarin 0.3 mg/ml
  fraction unbound at 72 h, 0.476 mg/ml: 0.089
HSA [2]; with warfarin 1.2 mg/ml
  fraction unbound at 72 h, 0.476 mg/ml: 0.0781
HSA [2]; without site markers
  fraction unbound at 72 h, 0.476 mg/ml: 0.0333
Zebrafish embryos [3]; 2 h
  Heart rate (beats/min) (Mean±SE): 148 ± 1 beats/min
  SV-BA spacing (µm) (Mean±SE): 210 ± 4 µm
Zebrafish embryos [3]; 6 h
  Heart rate (beats/min) (Mean±SE): 146 ± 2 beats/min
  SV-BA spacing (µm) (Mean±SE): 242 ± 7 µm
Zebrafish embryos [3]; 24 h
  Heart rate (beats/min) (Mean±SE): 75 ± 25 beats/min
  SV-BA spacing (µm) (Mean±SE): 241 ± 4 µm
  Effect on astemizole-induced heart rate slowing and SV-BA spacing increase (in words): no significant changes
Zebrafish embryos [4]; 4 µM astemizole, 48 h
  Phenotype: cardiac capsular oedema, lack of blood flow (share of zebrafish): 100% cardiac capsular oedema, lack of blood flow
Zebrafish embryos [4]; cotreated with 4 µM astemizole 48 h from 2 hpf
  Mortality: 3.3%
zebrafish; 100 µg/ml
  Staining intensity of cardiac red blood cells (pixels) (mean ± se): 1446 ± 54 pixels
  Antithrombotic effect (%): 5%
[5]
  Degree of protein binding with human plasma: up to 86.69%

## CC(=O)Oc1ccccc1C(=O)O [Aspirin, aspirin, reference compound]
zebrafish; 25 µg/ml
  Staining intensity of cardiac red blood cells (pixels) (mean ± se): 2036 ± 92 pixels
  Antithrombotic effect (%): 70^*** %
zebrafish; 25 µg/ml, listed as aspirin
  Staining intensity of cardiac red blood cells (pixels) (mean ± se): 2036 pixels
  Antithrombotic effect (%): 70%
